Literature values, collected in patent US6485514B1 (priority 1997, dated 2002).
Read-outs that look alike come from different tables or passages of the source.

Experiments:
[1] = tested on: human colon cancer xenografts
[2] = administered intravenously, clinical trials
[3] = tested on: drug-refractory ovarian cancer; details: in vivo
[4] = patients
[5] = cremaphor vehicle, 6-hour IV infusion

## CC[C@@]1(O)C(=O)OCc2c1cc1n(c2=O)Cc2cc3c(N)cccc3nc2-1 [9AC, 9-Amino-20(S)-Camptothecin]
[1]
  anticancer activity against human colon cancer xenografts: high anticancer activity

## CC[C@@]1(O)C(=O)OCc2c1cc1n(c2=O)Cc2cc3cc4c(cc3nc2-1)OCO4 [10,11 MD, 10,11-Methylendioxy-20(S)-Camptothecin]
[1]
  anticancer activity against human colon cancer xenografts: high anticancer activity

## CC[C@@](O)(C(=O)[O-])c1cc2n(c(=O)c1CO)Cc1cc3ccccc3nc1-2.[Na+] [CPT Na+, Camptothecin Sodium Salt]
[2]; listed as sodium salt of CPT
  clinical outcome (toxicity and potency): high toxicity and low potency
[2]; Sodium Salt
  clinical outcome (toxicity and potency): ineffectiveness and the toxicity

## CC(=O)O[C@H]1C(=O)[C@@]2(C)[C@H]([C@H](OC(=O)c3ccccc3)[C@]3(O)C[C@H](OC(=O)[C@H](O)[C@@H](NC(=O)c4ccccc4)c4ccccc4)C(C)=C1C3(C)C)[C@]1(OC(C)=O)CO[C@@H]1C[C@@H]2O [taxol]
[3]
  activity against drug-refractory ovarian cancer: active agent
[4]; 6-hour IV infusion every 21 days
  maximum tolerated dose: 275 mg/m^2
[4]; 6-hour IV infusion
  dose-limiting toxicity: Myelosuppression was dose-limiting
[5]
  dose-limiting toxicity: neurotoxicity and leucopenia were dose-limiting
